From article doi:10.1101/2024.08.25.609621 (bioRxiv, 2024)
Values joined by “and” are separate entries in the source; they are usually repeats but may differ in a detail not shown here. Equal values may be shown once. “Also recorded” adds a separate entry of the source. Read-outs that look alike come from different tables or passages of the source.

Columns and labels:
[1] = target: SARS-CoV-2 NSP3 macrodomain (Mac1), P43 crystal form (Severe acute respiratory syndrome coronavirus 2, UniProt P0DTD1); type: binding; settings: for 1-BDC: PanDDA background density correction; for X-ray crystal structure: X-ray crystal structure determined (TRUE); for Total number of conformations: ligand conformations modeled in Mac1 crystal structure; for Binding site: site of ligand in X-ray crystal structure; for X-ray crystallography: Binding site: site where the ligand is bound in the X-ray crystal structure
[2] = target: SARS-CoV-2 NSP3 macrodomain (Mac1) (Severe acute respiratory syndrome coronavirus 2, UniProt P0DTD1); assay: biochemical; type: binding; settings: for SARS CoV-2 macrodomain HTRF assay: Hillslope: dose-response fit
[3] = crystal soak 10 mM, P43 crystals
[4] = occupancy estimate from PanDDA 1-BDC
[5] = SARS CoV-2 macrodomain HTRF assay, dose-response
[6] = Single dose, concentration 200 μM, read-out: Average % competition
[7] = preliminary screen, compound at 200 μM, mean of 3-4 technical replicates, read-out: % competition in HTRF assay
[8] = preliminary screen, compound at 200 μM, mean of 3-4 technical replicates
[9] = crystal soak, soak concentration 10 mM
[10] = crystal soak, soak concentration 10 mM, TRUE = ligand hit
[11] = Single dose, concentration 200 μM, read-out: SARS CoV-2 macrodomain HTRF assay: Average % competition
[12] = occupancy estimate from PanDDA BDC
[13] = crystal soak concentration 10 mM, event 1
[14] = crystal soak concentration 10 mM, P43 crystals
[15] = crystal soak concentration 10 mM

SMILES	1-BDC [1]	X-ray crystal structure [1]	Pandda run, overall: Hit [1, 3]	Pandda run, overall: Modeled [1, 3]	PanDDA run, DMSO background map: 1-BDC ([1]; crystal soak 10 mM)	PanDDA run, DMSO background map: Hit ([1]; crystal soak 10 mM)	Total number of conformations [1]	2*(1-BDC) (%) [1, 4] [%]	Binding site [1]	Hill slope ([2]; HTRF dose-response fit, Mac1)	Hill slope [2, 5]	inhibition at 200 µM [2, 7] [%]	Pandda run, overall: Modeled [1, 9]	Pandda run, overall: Hit [1, 10]	X-ray crystallography: Binding site [1]	PanDDA run, DMSO background map: 1-BDC ([1]; soak concentration 10 mM)	PanDDA run, DMSO background map: Hit ([1]; soak concentration 10 mM)	SARS CoV-2 macrodomain HTRF assay: Hillslope [2]	further results
O=C(O)C(F)(F)F.OCC1(Nc2ncnc3[nH]ccc23)CCC1 [AVI-3670]	0.18	TRUE	TRUE	TRUE	0.18	TRUE	2	36	Adenosine	1.2	1.2	87	–	–	–	–	–	–	inhibition at 200 µM [2, 6]: 87%
CN(C)CC(CO)Nc1ncnc2[nH]ccc12 (centres unmarked) [AVI-3671]	0.17	TRUE	TRUE	TRUE	0.17	TRUE	1	34	Adenosine	–	–	–	–	–	–	–	–	–	% competition in HTRF assay [2, 8]: neither had detectable binding
OCC(CN1CCCCC1)Nc1ncnc2[nH]ccc12 (centres unmarked) [AVI-3677]	0.21	TRUE	TRUE	TRUE	0.21	TRUE	1	42	Adenosine	–	–	–	–	–	–	–	–	–	% competition in HTRF assay [2, 8]: neither had detectable binding
O=C(O)C(F)(F)F.OCC1(Nc2ncnc3[nH]ccc23)CCCC1 [AVI-3692]	0.22	TRUE	TRUE	TRUE	0.22	TRUE	1	44	Adenosine	1.3	1.3	85	–	–	–	–	–	–	inhibition at 200 µM [2, 6]: 85%
CCC(CC)(CO)Nc1ncnc2[nH]ccc12 [AVI-3695]	0.12	TRUE	TRUE	TRUE	0.12	TRUE	2	24	Adenosine	1.3	1.3	89	–	–	–	–	–	–	inhibition at 200 µM [2, 6]: 89%
CCC(C)(CO)Nc1ncnc2[nH]ccc12 (centres unmarked) [AVI-3697]	0.16	TRUE	TRUE	TRUE	0.16	TRUE	1	32	Adenosine	1.2	1.2	91	–	–	–	–	–	–	inhibition at 200 µM [2, 6]: 91%
CC1(C)C[C@@H](CO)N(c2ncnc3[nH]ccc23)C1.O=C(O)C(F)(F)F [AVI-3704]	0.33	–	–	–	–	–	1	66	–	1.1	–	90	TRUE	TRUE	Adenosine	0.33	TRUE	1.1	inhibition at 200 µM [2, 11]: 90%
OCC1CC2(CCCC2)CN1c1ncnc2[nH]ccc12 (centres unmarked) [AVI-3708]	0.32	–	–	–	–	–	1	64	–	1.1	–	90	TRUE	TRUE	Adenosine	0.32	TRUE	1.1	inhibition at 200 µM [2, 11]: 90%
OCC1C2CCC(C2)N1c1ncnc2[nH]ccc12 (centres unmarked) [AVI-3713]	0.29	–	–	–	–	–	1	58	–	1.1	–	92	TRUE	TRUE	Adenosine	0.29	TRUE	1.1	inhibition at 200 µM [2, 11]: 92%
OC[C@@H]1C[C@@H]2CCC[C@@H]2N1c1ncnc2[nH]ccc12 [AVI-3720]	0.29	–	–	–	–	–	1	58	–	1.2	–	92	TRUE	TRUE	Adenosine	0.29	TRUE	1.2	Phe132 loop open state ([1]; TRUE = open state of Phe132 loop modeled): TRUE; inhibition at 200 µM [2, 11]: 92%
O=C(O)C(F)(F)F.OC1([C@H]2CCCN2c2ncnc3[nH]ccc23)Cc2ccccc2C1 [AVI-3731]	0.2	–	–	–	–	–	1	40	–	1.1	–	100	TRUE	TRUE	Adenosine	0.2	TRUE	1.1	inhibition at 200 µM [2, 11]: 100%
OCCC(CO)Nc1ncnc2[nH]ccc12 (centres unmarked) [AVI-3734]	0.25	TRUE	–	–	–	–	1	50	Adenosine	1.2	1.2	86	TRUE	TRUE	–	0.25	TRUE	–	inhibition at 200 µM [2, 6]: 86%
CC(O)C1CCCN1c1ncnc2[nH]ccc12 (centres unmarked) [AVI-4062]	0.26	–	–	–	–	–	1	–	–	1.1	–	–	–	–	Adenosine	–	–	1.1	Occupancy difference (refined_occupancy - 2*(1-BDC)) [1]: 18; Refined ligand occupancy (%) [1]: 70%; Hit (PanDDA run, overall) [1, 3]: TRUE; Hit (PanDDA run, DMSO background map) ([1]; crystal soak 10 mM): TRUE; 1-BDC (PanDDA run, DMSO background map) ([1]; crystal soak 10 mM, event 1): 0.26 and 0.29; 2*(1-BDC) (%) [1, 12]: 52%
O=C(O)C(F)(F)F.OC[C@H](Cc1ccc(O)cc1)Nc1ncnc2[nH]ccc12 [AVI-4066]	0.2	TRUE	–	–	–	–	1	–	Adenosine	1.1	1.1	–	–	–	–	–	–	–	Occupancy difference (refined_occupancy - 2*(1-BDC)) [1]: 10; Refined ligand occupancy (%) [1]: 50%; Hit (PanDDA run, overall) [1, 3]: TRUE; Hit (PanDDA run, DMSO background map) ([1]; crystal soak 10 mM): TRUE; 1-BDC (PanDDA run, DMSO background map) ([1]; crystal soak 10 mM, event 1): 0.2 and 0.37 and 0.38; 2*(1-BDC) (%) [1, 12]: 40%; Refined TFA occupancy (%) ([1]; occupancy of TFA in the dataset of the named ligand): 20%
CC(C)(O)C1N(c2ncnc3[nH]ccc23)CCC1(C)C (centres unmarked) [AVI-4126]	0.16	–	–	–	–	–	2	–	–	1.3	–	–	–	–	Adenosine	–	–	1.3	Occupancy difference (refined_occupancy - 2*(1-BDC)) [1]: 8; Phe132 loop open state [1]: TRUE; Refined ligand occupancy (%) [1]: 40%; PanDDA run, DMSO background map: 1-BDC [1, 13]: 0.17 and 0.16; Pandda run, overall: Hit [1, 14]: TRUE; Pandda run, overall: Modeled [1, 14]: TRUE; Pandda run, overall: Modeling comment [1, 14]: Duplicate, not modeled; PanDDA run, DMSO background map: Hit [1, 15]: TRUE; PanDDA run, DMSO background map: Modeled [1, 15]: TRUE; 2*(1-BDC) (%) [1, 12]: 32%
CC(C)(O)C1C2CCCCC2CN1c1ncnc2[nH]ccc12 (centres unmarked) [AVI-4127]	0.25	–	–	–	–	–	2	–	–	1.3	–	–	–	–	Adenosine	–	–	1.3	Occupancy difference (refined_occupancy - 2*(1-BDC)) [1]: 10; Phe132 loop open state [1]: TRUE; Refined ligand occupancy (%) [1]: 60%; PanDDA run, DMSO background map: 1-BDC [1, 13]: 0.23 and 0.25; Pandda run, overall: Hit [1, 14]: TRUE; Pandda run, overall: Modeled [1, 14]: TRUE; Pandda run, overall: Modeling comment [1, 14]: Duplicate, not modeled; PanDDA run, DMSO background map: Hit [1, 15]: TRUE; PanDDA run, DMSO background map: Modeled [1, 15]: TRUE; 2*(1-BDC) (%) [1, 12]: 50%
CC(C)(O)C1C2CCC2CN1c1ncnc2[nH]ccc12 (centres unmarked) [AVI-4128]	0.2	–	–	–	–	–	1	–	–	1.2	–	–	–	–	Adenosine	–	–	1.2	Occupancy difference (refined_occupancy - 2*(1-BDC)) [1]: 20; Refined ligand occupancy (%) [1]: 60%; Comment ([1]; comment on ligand modeling / Phe132 loop density): Weak density for open conformation; PanDDA run, DMSO background map: 1-BDC [1, 13]: 0.27 and 0.2; Pandda run, overall: Hit [1, 14]: TRUE; Pandda run, overall: Modeled [1, 14]: TRUE; Pandda run, overall: Modeling comment [1, 14]: Duplicate, not modeled; also recorded: Weak density for open conformation; PanDDA run, DMSO background map: Hit [1, 15]: TRUE; PanDDA run, DMSO background map: Modeled [1, 15]: TRUE; 2*(1-BDC) (%) [1, 12]: 40%
